Test systems include HCT-116 colon; K-562 leukemia; MALME-3M melanoma; NCI-H226 lung; SF-268 CNS; HOP-62 NSCLC; MCF7 breast; MDA-MB-435; NCI/ADR-RES ovarian; PC-3 prostate; BT-549 breast; HS 578T breast.
What all share (assay): DTP human tumour cell line panel, 48 h

The structures appear in SMILES notation.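 Briefly, cells in 96-well plates were exposed to five compound concentrations for 48 h, and endpoints were estimated by linear interpolation. The concentration for 50% growth inhibition is given as GI50. At the TGI there is no net growth.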

Turning to `CC(C)=CCC/C(C)=C/C=C/C(C)=C/C1C[C@@]2(C(O)O1)[C@H](CCCO)/C(=C(/C)C=O)CC[C@]2(C)O` (stereo not given in full), the TGI (commonly the concentration giving total growth inhibition) with HCT-116 colon was 37.9 µM; in the assay with K-562 leukemia, 28.4 µM; with MALME-3M melanoma it was 22.6 µM; in the assay on NCI-H226 lung, 40.9 µM; in the assay with SF-268 CNS, 33.3 µM.

As for `CCOC(=O)c1csc(NC(=O)C(C)N2CCOCC2)n1` (stereo not given), the concentration for total growth inhibition (TGI) in the assay on HOP-62 NSCLC, with K-562 leukemia, in the assay on MALME-3M melanoma, with MCF7 breast, with MDA-MB-435 and with NCI/ADR-RES ovarian was above 100 µM in each case. Further, the total growth inhibition concentration (TGI) in the assay on PC-3 prostate is above 100 µM.

In the case of `C/C(=N\NC(=S)N1CCOCC1)c1nc2ncccc2[nH]1`, the TGI was above 100 µM in the assay on BT-549 breast; above 100 µM in the assay with HCT-116 colon; 96 µM in the assay with HOP-62 NSCLC; above 100 µM in the assay on HS 578T breast; above 100 µM in the assay on K-562 leukemia; above 100 µM in the assay with MALME-3M melanoma. Also, the TGI in the assay on MCF7 breast was 80.4 µM; in the assay with MDA-MB-435, above 100 µM; in the assay with NCI-H226 lung, above 100 µM; in the assay with NCI/ADR-RES ovarian, above 100 µM; in the assay with PC-3 prostate it was above 100 µM; with SF-268 CNS, above 100 µM.

Turning to `Cc1cc(Nc2ccc(Cl)cc2)nc(NCCCNc2ccnc3cc(Cl)ccc23)n1`, the values for the GI50 in the assay with HOP-62 NSCLC, in the assay with HS 578T breast and with PC-3 prostate were 1.53 µM, 1.84 µM and 1.65 µM, respectively. Further, the values for the TGI in the assay on HOP-62 NSCLC, with HS 578T breast and in the assay with PC-3 prostate were 3.07 µM, 3.98 µM and 3.18 µM, respectively.

`COC(=O)C(NC(=O)c1ccccc1)C(c1c(O)cc(O)cc1O)P(=O)(OC)OC` (stereo not given): the TGI in the assay with HCT-116 colon, with HOP-62 NSCLC, with K-562 leukemia, in the assay on NCI-H226 lung and with SF-268 CNS was above 100 µM each time.

As for `NC(Cc1ccccc1CP(=O)(O)O)C(=O)O` (stereo not given), the total growth inhibition concentration (TGI) in the assay with BT-549 breast, in the assay with HCT-116 colon, in the assay with HS 578T breast, in the assay with K-562 leukemia, with MCF7 breast and in the assay with MDA-MB-435 was above 100 µM throughout. Moreover, the TGI in the assay on NCI/ADR-RES ovarian, in the assay on PC-3 prostate and in the assay with SF-268 CNS was above 100 µM each time.

On to `CCN(CC)CCNc1ccc([N+](=O)[O-])c2sc3cc(Cl)ccc3c(=O)c12`, for which the GI50 (commonly the concentration that inhibits growth by half) with BT-549 breast is 17.7 µM; with HCT-116 colon it was 3.24 µM; in the assay on HOP-62 NSCLC it was 2.7 µM; in the assay with HS 578T breast, 4.41 µM; in the assay on MCF7 breast, 3.28 µM; in the assay with MDA-MB-435 it was 2.83 µM. Moreover, the GI50 in the assay on PC-3 prostate is 2.65 µM; in the assay with SF-268 CNS, 9.88 µM. Further, the TGI with BT-549 breast is above 100 µM; in the assay on HCT-116 colon it was above 100 µM; in the assay with HOP-62 NSCLC, above 100 µM; with HS 578T breast, 37.1 µM; with MCF7 breast it was above 100 µM; with MDA-MB-435 it was above 100 µM. Also, the TGI was above 100 µM in the assay on PC-3 prostate and 46.9 µM in the assay with SF-268 CNS.

For the origin of these results see PubChem BioAssay (NCI).
